Reference: patent publication US8580790B2, “(Heterocycle/condensed piperidine)-(piperazinyl)-1-alkanone or (heterocycle/condensed pyrrolidine)-(piperazinyl)-1-alkanone derivatives and use thereof as p75 inhibitors” (Sanofi, priority 2009, dated 2013)
Structures can show the parent of a compound that is named as a salt.

Compound | melting point [°C]
Cn1nnc(-c2ccc(N3C4CCC3CN(CC(=O)N3CCc5nn(-c6ccccc6)cc5C3)C4)nc2)n1 | 230 to 231
O=C(CN1CC2CCC(C1)N2c1ncc(F)cn1)N1CCc2c(cnn2-c2ccc(C(F)(F)F)cc2)C1 | 162 to 164
O=C(CN1CC2CCC(C1)N2c1ncc(F)cn1)N1CCc2c(cnn2-c2ccccc2)C1 | 148 to 150
O=C(CN1CCN(c2ccc(C(F)(F)F)cn2)C(=O)C1)N1CCc2c(cnn2CC(F)(F)F)C1 (as salt: oxalate) [compound 66, 4-{2-oxo-2-[1-(2,2,2-trifluoroethyl)-1,4,6,7-tetrahydropyrazolo[4,3-c]pyridin-5-yl]ethyl}-1-(5-trifluoromethylpyridin-2-yl)piperazin-2-one] | 82 to 83
O=C(CN1CCN(c2ccnc3cc(Cl)ccc23)CC1)N1CCc2nn(-c3ccccc3)cc2C1 [compound 113, 2-[4-(7-chloroquinolin-4-yl)piperazin-1-yl]-1-(2-phenyl-2,4,6,7-tetrahydropyrazolo[4,3-c]pyridin-5-yl)ethanone] | 100 to 101
O=C(CN1CC2CCC(C1)N2c1ncc(F)cn1)N1CCc2nc(-c3ccccc3)ncc2C1 | 212 to 213
C[C@@H]1CN(c2ccc(C(=O)O)cn2)C[C@H](C)N1CC(=O)N1CCc2c(cnn2C(C)(C)C)C1 [compound 93, 6-{(3S,5R)-4-[2-(1-tert-butyl-1,4,6,7-tetrahydropyrazolo[4,3-c]pyridin-5-yl)-2-oxoethyl]-3,5-dimethylpiperazin-1-yl}nicotinic acid] | 150 to 151
O=C(CN1CCN(c2ccc(C(F)(F)F)cn2)C(=O)C1)N1CCc2nn(-c3ccc(C(F)(F)F)cn3)cc2C1 [compound 65, 4-{2-oxo-2-[2-(5-trifluoromethylpyridin-2-yl)-2,4,6,7-tetrahydropyrazolo[4,3-c]pyridin-5-yl]ethyl}-1-(5-trifluoromethylpyridin-2-yl)piperazin-2-one] | 200 to 201
COC(=O)c1ccc(N2CC3CCC(C2)N3CC(=O)N2CCc3nn(-c4ccccc4)cc3C2)nc1 | 157 to 158
CC(C)(C)n1ncc2c1CCN(C(=O)CN1CC3CCC(C1)N3c1ncc(F)cn1)C2 | 142 to 143

Continued, values first:

melting point [°C] | Compound
196 to 198 | O=C(CN1CC2CCC(C1)N2c1ncc(F)cn1)N1CCc2nc(-c3ccc(F)cc3)sc2C1
180 to 181 | C[C@@H]1CN(c2cccnc2)C[C@H](C)N1CC(=O)N1CCc2nn(-c3ccc(F)cn3)cc2C1 [compound 142, 2-((2S,6R)-2,6-dimethyl-4-pyridin-3-ylpiperazin-1-yl)-1-[2-(5-fluoropyridin-2-yl)-2,4,6,7-tetrahydropyrazolo[4,3-c]pyridin-5-yl]ethanone]
220 to 221 | C[C@@H]1CN(CC(=O)N2CCc3nc(-c4ccccc4)sc3C2)[C@@H](C)CN1c1ccc(C(=O)O)cn1 [compound 63, 6-{(2R,5S)-2,5-dimethyl-4-[2-oxo-2-(2-phenyl-6,7-dihydro-4H-thiazolo[5,4-c]pyridin-5-yl)ethyl]piperazin-1-yl}nicotinic acid]
208 to 209 | C[C@@H]1CN(c2ccc(C(=O)O)cn2)C[C@H](C)N1CC(=O)N1CCc2nn(-c3ccccc3)cc2C1 [compound 149, 6-{(3S,5R)-3,5-dimethyl-4-[2-oxo-2-(2-phenyl-2,4,6,7-tetrahydropyrazolo[4,3-c]pyridin-5-yl)ethyl]piperazin-1-yl}nicotinic acid]
207 to 209 | C[C@@H]1CN(c2cccnc2)C[C@H](C)N1CC(=O)N1CCc2nc(-c3ccccc3)[nH]c2C1 [compound 145, 2-((2S,6R)-2,6-dimethyl-4-pyridin-3-ylpiperazin-1-yl)-1-(2-phenyl-3,4,6,7-tetrahydroimidazo[4,5-c]pyridin-5-yl)ethanone]
165 to 166 | C[C@@H]1CN(c2ccc(Cl)cn2)C[C@H](C)N1CC(=O)N1CCc2nn(-c3ccc(C(F)(F)F)cn3)cc2C1 [compound 112, 2-[(2S,6R)-4-(5-chloropyridin-2-yl)-2,6-dimethylpiperazin-1-yl]-1-[2-(5-trifluoromethylpyridin-2-yl)-2,4,6,7-tetrahydropyrazolo[4,3-c]pyridin-5-yl]ethanone]
212 to 213 | N#Cc1ccc(N2C3CCC2CN(CC(=O)N2CCc4nc(-c5ccc(F)cc5)sc4C2)C3)nc1
163 to 164 | C[C@@H]1CN(c2cccnc2)C[C@H](C)N1CC(=O)N1CCc2nn(-c3ccncc3)cc2C1 [compound 141, 2-((2S,6R)-2,6-dimethyl-4-pyridin-3-ylpiperazin-1-yl)-1-(2-pyridin-4-yl-2,4,6,7-tetrahydropyrazolo[4,3-c]pyridin-5-yl)ethanone]
168 to 169 | C[C@@H]1CN(c2ccc(C(F)(F)F)nc2)C[C@H](C)N1CC(=O)N1CCc2nc(-c3ccccc3)sc2C1 [compound 18, 2-[(2S,6R)-2,6-dimethyl-4-(6-trifluoromethylpyridin-3-yl)piperazin-1-yl]-1-(2-phenyl-6,7-dihydro-4H-thiazolo[5,4-c]pyridin-5-yl)ethanone]
50 to 51 | C[C@@H]1CN(c2ccc(C(F)(F)F)cn2)C[C@H](C)N1CC(=O)N1CCc2nn(C)cc2C1 (as salt: HCl) [compound 100, 2-[(2S,6R)-2,6-dimethyl-4-(5-trifluoromethylpyridin-2-yl)piperazin-1-yl]-1-(2-methyl-2,4,6,7-tetrahydropyrazolo[4,3-c]pyridin-5-yl)ethanone]
193 to 194 | O=C(CN1CC2CCC(C1)N2c1ncc(F)cn1)N1CCc2nc(-c3ccncc3)sc2C1
198 to 199 | C[C@@H]1CN(c2ccc(-c3nnnn3C)cn2)C[C@H](C)N1CC(=O)N1CCc2nn(-c3ccccc3)cc2C1 [compound 86, 2-{(2S,6R)-2,6-dimethyl-4-[5-(1-methyl-1H-tetrazol-5-yl)pyridin-2-yl]piperazin-1-yl}-1-(2-phenyl-2,4,6,7-tetrahydropyrazolo[4,3-c]pyridin-5-yl)ethanone]
159 to 161 | COc1ccc(-c2nc3c(s2)CN(C(=O)CN2[C@H](C)CN(c4ncc(F)cn4)C[C@@H]2C)CC3)cc1 [compound 132, 2-[(2S,6R)-4-(5-fluoropyrimidin-2-yl)-2,6-dimethylpiperazin-1-yl]-1-[2-(4-methoxyphenyl)-6,7-dihydro-4H-thiazolo[5,4-c]pyridin-5-yl]ethanone]
103 to 105 | C[C@@H]1CN(c2ccc(S(C)(=O)=O)cn2)C[C@H](C)N1CC(=O)N1CCc2nn(-c3ccccc3)cc2C1 [compound 131, 2-[(2S,6R)-4-(5-methanesulphonylpyridin-2-yl)-2,6-dimethylpiperazin-1-yl]-1-(2-phenyl-2,4,6,7-tetrahydropyrazolo[4,3-c]pyridin-5-yl)ethanone]
235 to 236 | CCOC(=O)c1ccc(N2C[C@@H](C)N(CC(=O)N3CCc4nn(-c5ccccc5)cc4C3)[C@@H](C)C2)nc1 (as salt: HCl) [compound 79, 6-{(3S,5R)-3,5-dimethyl-4-[2-oxo-2-(2-phenyl-2,4,6,7-tetrahydropyrazolo[4,3-c]pyridin-5-yl)ethyl]piperazin-1-yl}nicotinic acid ethyl ester]
